Several values for one entry are separate records, joined by “and”; a condition that tells them apart may be missing. Equal entries are not always repeated.
Experiments:
Balb/c mice = assay: In vivo acute toxicity; conditions: for Drug-induced lethality, died/survived (n = 6): 21 days
Procedure: Finally, we tested the acute toxicity of complex 16 in Balb/c mice after a single bolus i.p. injection of the compound dissolved in saline. […] Animals were monitored for 21 days after injection. […] Mice in these cohorts had normal hair cover; no changes of nutritional behaviour were registered over the entire period of observation. In contrast, doses >80 mg/kg were lethal for individual animals. […] Deaths were registered over the next 1–2 days (Table 5). In each group, the survived animals remained without visible changes for up to 21 days after the injection of 16.
The Balb/c female mice (8–10 weeks old, weight 20–22 g) were bred and hosted at the animal facility of the Blokhin Cancer Center. Mice were kept at 21 ± 1 °C, 50–60% humidity; food and water were added ad libitum. All manipulations were performed in accordance to the European Convention for the Protection of Vertebrate Animals used for Experimental and other Scientific Purposes (ETS 123). Compound 16 was injected i.p.; 70–110 mg/kg single bolus administration in 200 µL of saline. Each cohort contained six mice. Animals were monitored for 21 days after injection. General behavioural activity, nutritional habits, and the integrity of hair cover were the criteria of acute toxicity.

[1] = Lipophilicity, shake-flask method water/n-octanol; type: physicochemical; conditions: UV-vis, mean ± SD
Procedure: The lipophilicity of complexes 15–20 was studied using a standard shake-flask method in a mixture of water/n-octanol. For the quantification of compounds in the water phase, UV-vis spectrophotometry was used. […] Among other complexes, as expected, 20 was the most lipophilic (Table 1).
N-octanol was saturated with water and with water saturated with n-octanol; mixture400 mL of n-octanol (water) and 100 mL of water (n-octanol) was stirred for 24 h; and then fractions were separated. The sample of the complex was dissolved in n-octanol and a series of solutions in octanol (300, 250, 3 × 200, 150, 100, and 50 μM) was prepared. Absorption spectra were recorded and the calibration curve for maximum absorption was plotted. From 200 μM solutions, the mixtures with water were prepared (1:1, 1:2, 2:1 v/v) and shaken for 15 min. The organic phase was separated by centrifugation. The concentration of the complex in n-octanol was determined from the calibration curve and lipophilicity (logP) was calculated as log P = log [(C0–Caq)/Caq].

Row | Substance | signs of acute toxicity (Balb/c mice; 110 mg/kg i.p., initial 1–2 h after injection) | Drug-induced lethality, died/survived (n = 6) (Balb/c mice; single dose 70 mg/kg i.p., 70 mg/kg) | Drug-induced lethality, died/survived (n = 6) (Balb/c mice; single dose 80 mg/kg i.p., 80 mg/kg) | Drug-induced lethality, died/survived (n = 6) (Balb/c mice; single dose 90 mg/kg i.p.) | Drug-induced lethality, died/survived (n = 6) (Balb/c mice; single dose 100 mg/kg i.p.) | Drug-induced lethality, died/survived (n = 6) (Balb/c mice; single dose 110 mg/kg i.p.) | Log P [1]
1 | Na[trans-Ru(DMSO)(C21H19Cl2N5O)Cl4] [Compound 16] | Tremor and dyspnoea | no deaths and 0/6 * | no deaths and 0/6 | 2/6 | 2/6 | 4/6 | –
2 | Na[trans-Ru(DMSO)(C30H37Cl2N5O)Cl4] [Compound 20] | – | – | – | – | – | – | 1.3 ± 0.2

From PMC8707700, “Ru(III) Complexes with Lonidamine-Modified Ligands” (International Journal of Molecular Sciences, 2021)
